In experiment [1] the test system is BT474, H460, HCT116, HUVEC, LNCAP, MCF7, and PC3 cells. Kind of experiment: free test compound cell-based assay, 7 tumor cell panel (CellTiter-Glo). Conditions: Homo sapiens, NSA = no significant activity; for pIC50: average linear IC50 across the 7 tumor cell panel, read-out: Avg.; for IC50: average log IC50 across the 7 tumor cell panel, read-out: Avg. (log IC50) (converted). Set-up: species or system Human. As to the method:
Heterocyclic-substituted bis-1,8-naphthalimide compounds of Formula XV in Table 2 were prepared and tested for in vitro activity against a panel of tumor cells (Example 110).
Alternatively, the efficacy of compounds of the invention can be assayed by the following free test compound cell-based assay protocol
• 1. Prepare each cell line (BT474, H460, HCT116, HUVEC, LNCaP, MCF7, and PC3) at 1 k cells/well in separate plates with Complete Media (CM): RPM1 […]+10% FBS (Fetal Bovine Serum)+1% of 200 mM L-Glutamine. Plate number depends on test compounds provided by submitter. • 2. Detach prospective cell lines by first removing the media. When the flask is empty of media, begin rinsing out individual flasks with 5 mL sterile PBS. Move the PBS around within the flask to rinse well. Decant the PBS and add aseptically 5 mL of Accutase/flask. Make sure the Accutase covers the entire flask. • 3. Immediately place the flask(s) into a 37° C. incubator to allow cells to detach for 5-7 minutes. • 4. Post 5-7 minutes, remove flask(s) from the incubator and begin harvesting the detached cells using a serological pipette. Pipette up and down along the back of the flask to facilitate cell detachment. Pipette the Accutase containing cells into a sterile 50 mL conical tube/cell line. Pipette 10 mL of sterile PBS and re-rinse the flask to obtain remaining cells and dispense it into the same 50 mL conical tube/cell line for a total volume of 15 mL/tube/cell line. • 5. After each cell line has been allocated to a designated tube, take out 100 μL/tube/cell line for the cell counts. While the cell counts are being calculated, centrifuge the 50 mL tubes at 1000 rpm at 4° C. with a high brake. • 6. When centrifugation and cell calculations are completed, decant excess liquid and resuspend the cell pellet(s) using 5 mL CM, depending on calculations. • 7. Using a 5 mL syringe and an 18 G ½ needle, strain the cells to help prevent aggregation. Further strain by using a […] cell filter to block out any huge aggregates not broken down by the needle. • 8. After cell straining and filtering, take out calculated amount for a 1 k cells/well into fresh media. Take the media containing cells and load 100 μL/well into a bottom tissue culture treated flat 96 well plate. • 9. Immediately place in a 37° C. incubator overnight to allow the cells to adhere to the tissue culture treated 96 well plates. Day 2: • 1. Test compounds are submitted at 10 mM in sterile DMSO. • 2. DMSO as negative control and a positive standard are used in every assay! • 3. Prepare a 1:1000 fold dilution for each test compound, control, and standard for a 10e-5 M starting point. Do a 1:100 first, then a 1:10. • 4. Prior to diluting samples, vortex the samples and the controls for a homogeneous mixture. Note any sample that will not solubilize and/or stay in suspension. • 5. When the samples are at 10e-5 M, vortex each tube well and spin down fluid to ensure sample remains in tacked. Manual Dilution Protocol: • 1. After the tubes are at a final 1:1000 (10e-5 M) dilution, load the first column of the microtube box with the prospective sample. Load DMSO and positive control in singlets. The test compounds are loaded in duplicates. Load the remaining empty microtube racks with 540 μL of media to prepare for a serial dilution of 1:10. • 2. Agitate and transfer 60 μL from column 1 into successive wells containing 540 μL of media (1:10). Therefore, transfer 60 μL of column 1 into 540 μL of column 2. Resuspend column 2 about 10-15×'s then transfer 60 μL from column 2 to column 3 etc. Automated Dilution Protocol: • 1. Once the tubes are at a final 1:1000 (10e-5 M), load the first column of the microtube box with the prospective sample. Load DMSO and positive control in singlets. The compounds are loaded in duplicates. Load the remaining empty microtube racks manually with 540 μL of media to prepare for the automated serial dilution of 1:10 (see above diagram). • 2. […]
For orientation: Cellular ATP, detected with luciferase, serves as a proxy for viable cell number.

In a further experiment the test system is human melanoma (LOX). The settings on record: in vivo; cited from earlier work.
In the next experiment the test system is topoisomerase II. The settings on record: unlike most other known topoisomerase II inhibitors; cited from earlier work.
The subject of experiment [2] is human lung (LX-1) carcinoma xenograft. Conditions: in vivo; cited from earlier work.
Experiment [3] concerns human colon (CX-1) carcinoma xenograft. Conditions: in vivo; cited from earlier work.
In another experiment the test system is mouse xenograft models. Conditions: repeated dosing regimens; no strong schedule dependency; cited from earlier work.
Experiment [4] deals with T1, topoisomerase I isolated from calf thymus (Bos taurus, UniProt F1MN93).
T1 construct: topoisomerase I isolated from calf thymus; from tissue; host or cells: calf thymus
T1 sequence (F1MN93 1-767): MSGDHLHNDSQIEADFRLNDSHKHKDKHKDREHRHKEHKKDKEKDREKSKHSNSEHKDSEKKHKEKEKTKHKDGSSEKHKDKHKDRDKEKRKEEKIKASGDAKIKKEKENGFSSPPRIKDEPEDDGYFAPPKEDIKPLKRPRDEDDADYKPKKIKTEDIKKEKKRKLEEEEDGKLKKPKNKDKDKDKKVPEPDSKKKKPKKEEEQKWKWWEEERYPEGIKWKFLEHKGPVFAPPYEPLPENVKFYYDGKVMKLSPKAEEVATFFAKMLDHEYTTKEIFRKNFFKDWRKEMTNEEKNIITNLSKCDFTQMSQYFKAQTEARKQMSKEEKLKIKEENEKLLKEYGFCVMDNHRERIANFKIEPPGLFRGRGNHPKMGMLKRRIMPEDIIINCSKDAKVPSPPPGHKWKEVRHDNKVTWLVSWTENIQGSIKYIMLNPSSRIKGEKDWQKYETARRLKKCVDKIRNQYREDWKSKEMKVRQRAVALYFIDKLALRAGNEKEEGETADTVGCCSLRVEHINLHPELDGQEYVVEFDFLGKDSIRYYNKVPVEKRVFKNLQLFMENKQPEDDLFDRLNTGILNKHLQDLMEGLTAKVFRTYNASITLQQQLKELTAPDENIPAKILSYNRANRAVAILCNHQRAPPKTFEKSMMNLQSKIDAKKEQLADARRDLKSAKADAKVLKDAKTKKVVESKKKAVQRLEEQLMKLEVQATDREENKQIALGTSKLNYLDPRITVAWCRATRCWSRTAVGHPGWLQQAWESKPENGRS
Conditions: supercoiled DNA relaxation assay; cited from earlier work.

The subject of experiment [5] is MX-1 (mammary carcinoma) xenografts. Conditions: iv five daily doses at 20 mg/kg (2 cycles), or every 3 days for two doses at 55 mg/kg (2 cycles), or weekly for four doses; cited from earlier work.

pIC50: −log10 of the molar value. Counter-ions that a name gives are not always drawn. Like-named read-outs stand apart in the source and are kept apart here.

In general, IC50 refers to the midpoint of a concentration-inhibition curve. Turning to `O=C1c2cccc3c(N4CCOCC4)ccc(c23)C(=O)N1CCN1C=[N+](CCN2C(=O)c3cccc4c(N5CCOCC5)ccc(c34)C2=O)CCC1` [Compound 57, N, N′-(bis-aminoethyl-1,4,5,6-tetrahydropyrimidinium)-bis-4-morpholino-1,8 naphthalimide], in experiment [1], the pIC50 was 6.33 and the IC50 is 468 nM.

Turning to `O=C1c2cccc3c(N4CCNCC4)ccc(c23)C(=O)N1CCNCCCNCCN1C(=O)c2cccc3c(N4CCNCC4)ccc(c23)C1=O` [Compound 58a, N, N′-(bis-aminoethyl-1,3-propanediamine)-bis-4-piperazino-1,8 naphthalimide], in experiment [1], the pIC50 was 8.77 and the IC50 is 1.7 nM.

As for `O=C1c2cccc3c(N4CCNCC4)ccc(c23)C(=O)N1CCNCCNCCN1C(=O)c2cccc3c(N4CCNCC4)ccc(c23)C1=O` [Compound 58b, N, N′-(bis-aminoethyl-1,2-ethanediamine)-bis-4-piperazino-1,8 naphthalimide], in experiment [1], the pIC50 was 7.57 and the IC50 was 26.9 nM.

As for `O=C1c2cccc3c(N4CCNCC4)ccc(c23)C(=O)N1CCN1C=[N+](CCN2C(=O)c3cccc4c(N5CCNCC5)ccc(c34)C2=O)CCC1` [Compound 59, N, N′-(bis-aminoetbyl-1,4,5,6-tetrahydropyrimidinium)-bis-4-piperazino-1,8 naphthalimide trifluoroacetate salt], in experiment [1], the pIC50 is 8.82 and the IC50 is 1.51 nM.

As to `CN1CCN(c2ccc3c4c(cccc24)C(=O)N(CCNCCNCCN2C(=O)c4cccc5c(N6CCN(C)CC6)ccc(c45)C2=O)C3=O)CC1` [Compound 60, N, N′-(bis-aminoethyl-1,2-ethanediamrne)-bis-4-(4-methylpiperazino)-1,8 naphthalimide], in experiment [1], the pIC50 is 8.98 and the IC50 is 1.05 nM.

`CN1CCN(c2ccc3c4c(cccc24)C(=O)N(CCNCCNCCN2C(=O)c4cccc5c(Br)ccc(c45)C2=O)C3=O)CC1` [Compound 61, N, N′-(bis-aminoethyl-1,2-ethanediamine)-4-piperazino,4-bromo-1,8 naphthalimide]: in experiment [1], the pIC50 was 7.39 and the IC50 was 40.7 nM.

Regarding `CC(=O)c1ccc2c3c(cccc13)C(=O)N(CCNCCCNCCN1C(=O)c3cccc4c(N5CCOCC5)ccc(c34)C1=O)C2=O` [Compound 62, N, N′-(bis-aminoethyl-1,3-propanediamine)-4-acetyl,4-morpholino-1,8 naphthalimide], in experiment [1], the pIC50 was 8.34 and the IC50 was 4.57 nM.

On to `CC(=O)N1CCN(c2ccc3c4c(cccc24)C(=O)N(CCNCCNCCN2C(=O)c4cccc5c(N6CCN(C(C)=O)CC6)ccc(c45)C2=O)C3=O)CC1` [Compound 63a, N, N′-(bis-aminoethyl-1,2-ethanediamine)-bis 4-(4-acetylpiperazino)-1,8 naphthalimide], for which, in experiment [1], the pIC50 is 8.35 and the half-inhibitory concentration (IC50) was 4.47 nM.

`CC(=O)N1CCN(c2ccc3c4c(cccc24)C(=O)N(CCN2C=[N+](CCN4C(=O)c5cccc6c(N7CCN(C(C)=O)CC7)ccc(c56)C4=O)CC2)C3=O)CC1` [Compound 63b, N, N′-(bis-aminoethy-4,5-dihydro-imidazolium)-bis 4-(4-acetylpiperazino)-1,8 naphthaliinide]: in experiment [1], the pIC50 was 6.60 and the IC50 is 251 nM.

For the compound `CC(=O)N1CCN(c2ccc3c4c(cccc24)C(=O)N(CCNCCCNCCN2C(=O)c4cccc5c(N6CCN(C(C)=O)CC6)ccc(c45)C2=O)C3=O)CC1` [Compound 63c, N, N′-(bis-aminoethyl-1,3-propanediamine)-bis-4-(4-acetylpiperazino)-1,8 naphthalimide], in experiment [1], the pIC50 was 8.96 and the IC50 is 1.1 nM.

Regarding `CC(=O)N1CCN(c2ccc3c4c(cccc24)C(=O)N(CCNCCCNCCN2C(=O)c4cccc5c(N(C)C)ccc(c45)C2=O)C3=O)CC1` [Compound 64, N, N′-(bis-aminoethyl-1,3-propanediamine)-4-(4-acetylpiperazino)-4-dimethylamino-1,8 naphthalimide], in experiment [1], the pIC50 is 8.74 and the IC50 was 1.82 nM.

With `O=C1c2cccc3c(O)ccc(c23)C(=O)N1CCNCCCNCCN1C(=O)c2cccc3c(-n4ccnc4)ccc(c23)C1=O` [Compound 65, N, N′-(bis-aminoethyl-1,3-propanediamine)-4-(N-imidazolyl)-4-hydroxyl-1,8 naphthalimide], in experiment [1], the pIC50 was 6.54 and the half-maximal inhibitory concentration (IC50) was 288 nM.

As to `O=C1c2cccc3cccc(c23)C(=O)N1CCNCCCNCCN1C(=O)c2cccc3cccc(c23)C1=O` [elinafide], in the experiment with human melanoma (LOX), the “efficacy in human melanoma (LOX) models” value is given as “curative”. In addition, the DNA cleavage entry in the experiment on topoisomerase II is reported as “does not cause significant DNA cleavage”. In addition, the “tumor regression in human lung (LX-1) carcinoma xenograft model” value in experiment [2] is “partial and complete tumor regression, as well as some cures”. Also, the “tumor regression in human colon (CX-1) carcinoma xenograft model” value in experiment [3] was “partial and complete tumor regression, as well as some cures”. In addition, in the experiment with mouse xenograft models, the antitumor activity result is given as “demonstrated antitumor activity”. In experiment [4], the pIC50 was 5.30. Further, the “regression of MX-1 (mammary carcinoma) xenografts” value in experiment [5] was “complete regression”.
